# Source: patent US7041678B2 (priority 1999, dated 2006)
# “Also recorded” adds a separate entry of the source.
# Columns and labels:
# nor-1 promoter [1] = type: cell-based, Aspergillus parasiticus
# aflatoxin biosynthesis = type: cell-based, Aspergillus parasiticus SU-1
# ipnA promoter = type: cell-based, Aspergillus nidulans
# nor-1 gene = type: cell-based, Aspergillus parasiticus SU-1
# nor-1 promoter [2] = type: cell-based, Aspergillus parasiticus; remark: listed apart in the source
# ver-1 promoter = experiment: Transcription from the ver-1 promoter; type: cell-based, Aspergillus parasiticus
# tri5 promoter = type: cell-based, Gibberella zeae
compound,measurement,setting,value
CCCCC/C=C/CCCCCC/C=C/C=C/C(=O)N1CCCCC1 [Cp2],Fungus growth on TLC plates,nor-1 promoter [1],Fungal growth was seen; also recorded: did not inhibit fungus growth
same,Inhibition of GUS in TLC bioassay,nor-1 promoter [1],inhibitory properties
same,Concentration that appeared to completely inhibit biosynthesis of aflatoxin,aflatoxin biosynthesis,greater than 26 μg/ml
same,Amounts of aflatoxins B1 and G1,"aflatoxin biosynthesis; 2.6-78 μg/ml, 48 hours",reduction
same,Transcription from the ipnA promoter (GUS),ipnA promoter,inhibit transcription; also recorded: inhibited
same,Transcription of the nor-1 gene,nor-1 gene,inhibits
same,nor-1 transcription at lower concentrations,nor-1 gene,did not completely inhibit
same,Transcription from the nor-1 promoter,nor-1 promoter [2],inhibit transcription
same,Transcription from the ver-1 promoter,ver-1 promoter,inhibit transcription
same,Transcription from the tri5 promoter (GUS),tri5 promoter,inhibit transcription; also recorded: inhibited
